Experimental data taken from patent publication US7790781B2 (priority 2005, dated 2010).

Assays:
[1] = pKa of acidic compound in water
Excerpt: If polyfunctional acids are used, it is sufficient for at least one of the pKa values, preferably the pKa1 of the polyfunctional acid used, to lie within the aforementioned ranges.

[2] = Polyether solubility of acidic compound (20° C.); conditions: organic solvent or mixture
[3] = Water solubility of acidic compound at 20° C.
Excerpt: This object is achieved pursuant to the invention by a condensation-crosslinkable dental material having a composition containing at least one alkoxysilyl-functional and/or hydroxysilyl-functional polyether a), at least one catalyst b), and optionally water c), with the at least one catalyst b) being selected from the group consisting of bases, salts, and any combinations thereof.

Row | Water solubility [3] | Structure (SMILES) | pKa [1] | solubility [2] [mg/mL] | solubility ([3]; 20 °C, water) [mg/mL]
1 | – | O=C1CC(=O)NC(=O)N1 [barbituric acid] | 4.01 | ≤ 2 | 142
2 | about 750 g/l | Cc1ccc(S(=O)(=O)O)cc1 [p-toluenesulfonic acid] | – | – | –
